Measured values from US9089850B2, “Method and apparatus for separation of pharmaceutical materials on the basis of their density” (Syracuse University, priority 2009, dated 2015).
Read-outs that look alike come from different tables or passages of the source.

Key:
[1] = cited from earlier work
[2] = Density gradient analysis of fresh, quickly crystallized sulfathiazole samples; assay type: physicochemical; details: relative amount of form in density gradient; benzene/chloroform to tetrachloroethylene gradient
Source text: Our density gradient methodology is a refinement and extension to the pharmaceutical industry of existing well-established methodologies in other fields. [Bomstein & Steberl, 1959; Kind & Summerscales, 1966; US 2004/6,709,871 B2; Richards, 1999; ASTM D 1505-98; ISO 1183-2:2004; Yanagi, 2010; Doom, 2010; Chernov, 2009a.b; Moshammer, 2009; Fleurier, 2009; Kato, 2009; Deng, 2008, 2009; Park, 2008; Lu, 2006; Hersam, 2006]. A density gradient is made with a “gradient maker” consisting of two chambers connected through a stopcock and with a second stopcock on one of the containers to an outflow tube. A mixer is used in the outflow chamber.
We have developed this technique to optimize reliability and visibility of the resulting separated materials. In particular, we have created a device that permits the formation of identical gradients in one overall unobstructed container (see FIG. 3 and FIG. 4). These columns are at the outer wall of the overall cylindrical container. A central black column permits viewing of the materials in each column individually. The tubes that will contain the samples of crystalline material are open at the bottom; the gradient maker fills all columns simultaneously forming identical gradients.
A density gradient was prepared in the device described above using a mixture of benzene and chloroform (ρ=1.32 g/cm^3) as one liquid and tetrachloroethylene (ρ=1.62 g/cm^3) as the other.
Fresh crystalline samples of solid sulfathiazole were prepared by crystallizing about 50 mg of sulfathiazole (Sigma-Aldrich lot 028K1522) from water, methanol, ethanol, isopropanol and n-butanol by dissolving them at about 55° C. and then cooling to ambient temperature to form crystals at which point material was harvested. All materials were made at the same time, isolated within an hour of each other and dried with a stream of argon gas.
Based on the density gradient analysis, this rapid crystallization gives from water a mixture of forms III and IV in about equal amount, from both methanol and ethanol form II and III, from isopropanol a mixture of forms I, II and III and from n-butanol form I. The bands for this last material are distinctly more compact than those of the other forms.
One of the major benefits of the gradient method is that it provides an immediate visual report of the number of materials in an API preparation. A qualitative interpretation of the relative amounts of components in the gradient is easily made. A more quantitative estimate could be obtained by a simple light scattering analysis with simple added apparatus that performs either transmission or 90 degree scattering measurements. Calibration of the light scattering signal as a function of the amount of API could be performed using a sample in a very steep gradient (and thus not separated). This would make this a semi-quantitative method.

[3] = polymorphic form expected for the crystallization solvent, previous work [Parmar, 2007]; cited from earlier work
[4] = Seeding experiment in n-propanol with flotation density test; assay type: physicochemical; details: crystals slowly grown in n-propanol at ambient temperature, seeded with material of form III density
Source text: Parmar, 2007 states that crystallization from n-propanol yields form I and that that form is stable in this solvent. In a seeding experiment we harvested material that was the right density for form III and used this to seed crystallization in n-propanol. The resulting crystals, slowly grown at ambient temperature, are not consistent with form I or form III, but are consistent with form II. The density by a flotation density test indicates this material to be form II. The observation that form II is obtained in this case is quite probably due to the presence of a small amount of form II in the predominantly form III sample. […] That is not the case with our seed crystals.

Row | Compound | Form II [2] | Form III [2] | Form IV [2] | Expected [23] [3] | also measured
1 | Nc1ccc(S(=O)(=O)Nc2nccs2)cc1 [form I, sulfathiazole] |  |  |  |  | density ([1]; single crystal x-ray results [Blagden, 1998], listed as I): 1.500
2 | Nc1ccc(S(=O)(=O)Nc2nccs2)cc1 [form III, sulfathiazole] |  |  |  |  | density ([1]; single crystal x-ray results [Blagden, 1998], listed as III): 1.569
3 | Nc1ccc(S(=O)(=O)Nc2nccs2)cc1 [form II, sulfathiazole] |  |  |  |  | density ([1]; single crystal x-ray results [Blagden, 1998], listed as II): 1.551
4 | Nc1ccc(S(=O)(=O)Nc2nccs2)cc1 [Tube D, sulfathiazole] | major | minor | very | Form III | Form I [2]: very
5 | Nc1ccc(S(=O)(=O)Nc2nccs2)cc1 [form IV, sulfathiazole] |  |  |  |  | density ([1]; single crystal x-ray results [Blagden, 1998], listed as IV): 1.595
6 | Nc1ccc(S(=O)(=O)Nc2nccs2)cc1 [Tube E, sulfathiazole] |  |  |  | Form I | Form I [2]: major
7 | Nc1ccc(S(=O)(=O)Nc2nccs2)cc1 [sulfathiazole] |  |  |  |  | polymorphic form by flotation density test [4]: form II
8 | Nc1ccc(S(=O)(=O)Nc2nccs2)cc1 [Tube C, sulfathiazole] | major | major | minor | Form IV | 
9 | Nc1ccc(S(=O)(=O)Nc2nccs2)cc1 [Tube B, sulfathiazole] | major | major | minor | Form II | 
10 | Nc1ccc(S(=O)(=O)Nc2nccs2)cc1 [Tube A, sulfathiazole] | minor | major | major | Form IV | 
11 | Nc1ccc(S(=O)(=O)Nc2nccs2)cc1 [form V, sulfathiazole] |  |  |  |  | density ([1]; synchrotron x-ray powder diffraction study [Chan, 1999]): 1.484
